Assay results: patent publication US5508288A, “Indole derivatives as 5HT1C antagonists” (SmithKline Beecham, p.l.c., priority 1992, dated 1996)

How the values were obtained:
5-HT1C receptors [1] = target: T1, 5-HT1C receptors (Rattus norvegicus, UniProt P08909); conditions: rats; literature (Kennett and Curzon); cited from earlier work
T1 construct: tissue Charles River; host or cells: whole animal, male Sprague Dawley rats (central receptors, in vivo)
T1 sequence (P08909 33-460): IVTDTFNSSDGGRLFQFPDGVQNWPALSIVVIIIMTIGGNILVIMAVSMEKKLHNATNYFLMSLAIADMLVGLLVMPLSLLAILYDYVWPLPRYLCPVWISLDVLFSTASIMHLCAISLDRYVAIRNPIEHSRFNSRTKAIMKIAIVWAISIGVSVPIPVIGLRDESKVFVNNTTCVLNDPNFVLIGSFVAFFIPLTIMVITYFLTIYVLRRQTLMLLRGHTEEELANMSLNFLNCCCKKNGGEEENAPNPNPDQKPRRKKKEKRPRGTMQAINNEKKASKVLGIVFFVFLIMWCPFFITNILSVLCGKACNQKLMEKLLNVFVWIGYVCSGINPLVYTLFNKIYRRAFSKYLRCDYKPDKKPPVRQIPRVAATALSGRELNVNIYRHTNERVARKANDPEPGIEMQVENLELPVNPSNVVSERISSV

5-HT1C -like Receptors = target: T2, 5-HT1C -like Receptors (Rattus norvegicus, UniProt P30994); test: Rat fundic strip, antagonism of 5-HT; conditions: agonist 5-HT, read-out: pA2 (converted)
T2 construct: tissue Charles River; host or cells: stomach fundus strips of male CD rats
T2 sequence (P30994 whole entry): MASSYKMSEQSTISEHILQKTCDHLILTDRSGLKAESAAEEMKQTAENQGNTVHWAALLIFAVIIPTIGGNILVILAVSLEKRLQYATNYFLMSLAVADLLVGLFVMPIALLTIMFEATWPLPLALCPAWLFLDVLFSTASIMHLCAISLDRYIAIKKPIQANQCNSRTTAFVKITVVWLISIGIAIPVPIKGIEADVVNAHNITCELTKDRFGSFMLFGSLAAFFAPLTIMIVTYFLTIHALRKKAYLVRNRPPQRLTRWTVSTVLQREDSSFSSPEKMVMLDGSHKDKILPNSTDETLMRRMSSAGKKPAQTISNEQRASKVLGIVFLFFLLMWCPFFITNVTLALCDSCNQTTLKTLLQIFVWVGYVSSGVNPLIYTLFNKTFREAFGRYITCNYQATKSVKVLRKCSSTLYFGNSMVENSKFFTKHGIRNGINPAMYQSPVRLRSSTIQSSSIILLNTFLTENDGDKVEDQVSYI
Source text: The 5-HT receptor in the rat fundic strip (RFS) has been characterised as `5-HT1C -like` as its pharmacology is similar, but not identical, to that of rat 5-HT1C receptor dones.
Whole stomachs were obtained from male CD Rats (Charles River, 250-350 g). Strips of fundus (2 cm×0.5 cm) were cut from the greater curvature and the mucesae carefully removed. Tissues were then further dissected into smaller strips (2 mm×20 mm) which were mounted in organ baths containing oxygensted Tyrodes solution at 37° C. containing indomethacin (3 μM). Preparations were maintained under a resting tension of 0.5 g and exposed to the irreversible MAO inhibitor pargyline (100 μM for 30 minutes followed by washout). Over a 1 h equilibration period, rat fundic strips were challenged with 1×10^-8 M 5-HT at 15 minute intervals until constant responses were obtained. Fifteen minutes later, a complete cumulative concentration-effect curve to the standard agonist 5-HT (1×10^-10 upwards) was constructed to determine the individual sensitivity of each preparation. A further concentration-effect curve to either 5-HT, or other agonists was constructed no sooner than 1 h after completion of the previous curve. When necessary tissues were equilibrated with the antagonists over this one hour period. Antagonists affinities are expressed as pA2 estimates.

5-HT1C receptors [2] = target: T1, 5-HT1C receptors; test: Reversal of mCPP-induced hypolocomotion; type: in vivo; conditions: po, p.o. 1 h pretest, mCPP 7 mg/kg i.p., male Sprague Dawley rats, read-out: ID50 (the source's name)
Source text: This effect was blocked by the non specific 5-HT1C /5-HT2 receptor antagonists mianserin, cyproheptadine and metergoline and perhaps by mesulergine. It was not blocked by the 5-HT2 receptor antagonists ketanserin and ritanserin at relevant doses (Kennett and Curzon 1991) nor by antagonists of 5-HT1A, 5-HT1B, 5-HT3, α2 adrenoceptors or dompamine D2 receptors. The effect of mCPP is therefore considered to be mediated by 5-HT1C receptors (Kennett and Curzon 1988) as confirmed by subsequent studies (Lucki et al., 1989). Since mCPP causes hypolocomotion when infused into the cerebral ventricles this effect is probably centrally mediated (Kennett and Curzon 1988).
mCPP-induced hypolocomotion was measured in automated locomotion cages of dimensions 56 cm long×161/2× cm wide×25 cm high and made of black perspex. Two photobeams traversed the width of the cages at either end at ground level. Sequential breaking of these beams allowed the measurement of cage transits.
Male Sprague Dawley rats (200-250 g) (Charles River) were housed in groups of six. They were given drugs orally 1 h pretest and 40 mins later mCPP (7 mg/kg i.p.). After a further 20 min they were placed in individual automated cages in groups of four under red light in an adjacent room. After 10 min the test was terminated. […]

[3] = test system: rat stomach fundus seretonin receptor; conditions: J. Med. Chem. 1986 29 2415-2418; cited from earlier work

| SMILES | block of mCPP-induced hypolocomotion (5-HT1C receptors [1]) | also measured |
| --- | --- | --- |
| CN1CCC(=C2c3ccccc3C=Cc3ccccc32)CC1 [cyproheptadine] | blocked | – |
| Cc1cc(NC(=O)Nc2ccc3c(ccn3C)c2)sn1 [Example 5, N-(1-Methyl-5-indolyl)-N'-(3-methyl-5-isothiazolyl) urea] | – | Kb (5-HT1C -like Receptors): 12.6 nM |
| Cn1ccc2cc(NC(=O)Nc3cccnn3)ccc21 [Example 2, N-(1-Methyl-5-indolyl)-N'-(3-pyridazinyl) urea] | – | ED50 (5-HT1C receptors [2]): 47 mg/kg |
| O=C(c1ccc(F)cc1)C1CCN(CCn2c(=O)[nH]c3ccccc3c2=O)CC1 [ketanserin] | not blocked | – |
| CCc1c(C)n(C)c2ccc(NC(=O)Nc3cccc(C(F)(F)F)c3)cc12 [N-(1,2-dimethyl-3-ethyl-1H-indol-5-yl)-N'-(3-trifluoromethylphenyl)urea] | – | selectivity for the rat stomach fundus serotonin receptor [3]: shows selectivity |
| CN1C[C@@H](NS(=O)(=O)N(C)C)C[C@@H]2c3cccc4c3c(cn4C)C[C@H]21 [mesulergine] | perhaps | – |
| CN1CCN2c3ccccc3Cc3ccccc3C2C1 (stereo not shown) [mianserin] | blocked | – |
| Cn1ccc2cc(NC(=O)Nc3cncnc3)ccc21 [Example 3, N-(1-Methyl-5-indolyl)-N'-(5-pyrimidinyl) urea] | – | ED50 (5-HT1C receptors [2]): 43.7 mg/kg |
| CN1C[C@H](CNC(=O)OCc2ccccc2)C[C@@H]2c3cccc4c3c(cn4C)C[C@H]21 [metergoline] | blocked | – |
| Cc1nc2sccn2c(=O)c1CCN1CCC(=C(c2ccc(F)cc2)c2ccc(F)cc2)CC1 [ritanserin] | not blocked | – |
